Article PMC10251482, “Cyanomethyl Vinyl Ethers Against Naegleria fowleri” (ACS Chemical Neuroscience, 2023)
Where two headings read alike, the source gives them in different places.

Tests used:
[1] = test system: N. fowleri ATCC 30808 trophozoites; assay: In vitro activity against trophozoite stage (alamarBlue), strain ATCC 30808; type: cell-based, Naegleria fowleri; details: for S.I. ATCC 30808 (selectivity index CC50/IC50): CC50 murine macrophages / IC50 N. fowleri ATCC 30808; for IC50 / IC90: Naegleria fowleri, ATCC30808, trophozoites, alamarBlue, 48 h incubation
[2] = test system: N. fowleri ATCC 30215 trophozoites; assay: In vitro activity against trophozoite stage (alamarBlue), strain ATCC 30215; type: cell-based; details: Naegleria fowleri, ATCC30215, 48 h incubation
[3] = In vitro cytotoxicity against murine macrophages (alamarBlue); type: cell-based; details: mouse
Description: (§1) For cytotoxicity assays, a murine cell line macrophage J774A.1 (ATCC TIB-67) was used, maintained in the Dulbecco’s modified Eagle’s medium (DMEM, w/v) supplemented with 10% (v/v) FBS and 10 μg/mL gentamicin (Sigma-Aldrich, Madrid, Spain), incubated at 37 °C in a 5% CO2 atmosphere.
(§2) In this assay, a murine macrophage cell line J774A.1 (ATCC TIB-67) was used. Serial dilutions of the compounds were added and, subsequently, the alamarBlue reagent as described in previous studies[51] was also placed. Once the plates were read on the EnSpire Multimode Plate Reader (PerkinElmer, Madrid, Spain), the data were analyzed to obtain the cytotoxic concentration 50 (CC50). This CC50, together with the activity, was used to obtain the selectivity index for N. fowleri.

[4] = test system: murine macrophage cell line J774A.1 (ATCC TIB-67); assay: as above; type: cell-based; details: mouse
Description: as §1, §2

[5] = test system: N. fowleri ATCC 30808 cysts; assay: In vitro activity against cyst stage (alamarBlue); type: cell-based; details: Naegleria fowleri, ATCC30808, read 24 h after adding reagent, read-out: Cysticidal activity, N. fowleri ATCC 30808 IC50
[6] = test system: N. fowleri ATCC 30808 trophozoites; assay: Chromatin condensation assay (Hoechst 33342/PI double stain); type: cell-based, Naegleria fowleri; details: 24 h incubation with IC90
Description: (§3) To evaluate the mechanisms of action of the compounds at the cellular level, a series of commercial kits were used according to the manufacturer’s instructions. To carry out the assays, the N. fowleri ATCC 30808 culture was previously incubated with the IC90 of the compounds evaluated for 24 h. Nontreated N. fowleri trophozoites were used as a negative control. […] Five images were processed each time at 40x and 100x objective lenses.
A double-stain apoptosis detection kit (Hoechst 33342/PI) (Life Technologies, Madrid, Spain) was used to evaluate DNA condensation based on the fluorescent detection for chromatin compaction in apoptotic cells, and the assay offers a rapid and convenient apoptosis detection. As soon as the amoebae have been incubated for 24 h with the active compound’s IC90, Hoechst and propidium iodide (PI) are added at a final concentration of 5 and 1 μg/mL, respectively. Fluorescence should be observed after 15 min of incubation in the dark. In apoptotic cells, Hoechst 33342, a dye for blue fluorescence, stains the condensed chromatin more intensely than that in normal cells. PI emits red fluorescence (maximum excitation and emission wavelengths when bound to DNA of 535 and 617 nm, respectively), which can only be emitted through dead cells.

[7] = test system: N. fowleri ATCC 30808 trophozoites; assay: Mitochondrial membrane potential disruption (JC-1); type: cell-based, Naegleria fowleri; details: 24 h incubation with IC90
Description: as §3
To determine the potential of the mitochondrial membrane was use the dye JC-1 (1,1′,3,3′-tetraethyl-5,5′,6,6′-tetrachloroimidacarbocyanine iodide) (Cayman Chemicals Vitro SA, Madrid, España). Once the amoebae were incubated for 24 h with the IC90 of the active compounds, 10 μL of JC-1 was added. […] The reagent fluoresces at two different wavelengths depending on the membrane potential. Under normal conditions, the monomers bind together to form J-aggregates (dimers) emitting red fluorescence at 595 nm.

[8] = test system: N. fowleri ATCC 30808 trophozoites; assay: ATP levels (CellTiter-Glo Luminescent Cell Viability Assay); type: cell-based, Naegleria fowleri; details: 24 h incubation with IC90
Description: To evaluate the mechanisms of action of the compounds at the cellular level, a series of commercial kits were used according to the manufacturer's instructions. To carry out the assays, the N. fowleri ATCC 30808 culture was previously incubated with the IC90 of the compounds evaluated for 24 h. Nontreated N. fowleri trophozoites were used as a negative control. […] Five images were processed each time at 40x and 100x objective lenses. In order to measure the amount of ATP produced, Cell […]-GLO Luminescent Cell Viability assay (Promega Biotech Ibérica, Madrid, Spain) was used. With this kit, it is possible to compare the ATP production of treated cells to that of nontreated (negative control). ATP levels were evaluated by luminescent analysis using an EnSpire Multimode Plate Reader (Perkin Elmer, Madrid, Spain) following incubation with IC90 of selected compounds at 37 °C for 24 h.

[9] = test system: N. fowleri ATCC 30808 trophozoites; type: cell-based, Naegleria fowleri; details: not told
Description: as §3
The permeability of the plasma membrane can be analyzed using a green fluorescent dye called SYTOX Green (Life Technologies, Madrid, Spain). After the amoebae are incubated for 24 h with the IC90 of cyanomethyl vinyl ethers, SYTOX Green was added to a final concentration of 1 μM and after 15 min of incubation, cells were observed using Discover Echo Inc. Revolution Microscope (Discover Echo, San Diego, CA). The plasma membrane of the damaged cells will become permeable, giving the reagent the ability to enter through it. When inside the cell, it binds to the DNA and increases its fluorescence more than 500-fold, emitting green fluorescence at 523 nm.

[10] = test system: N. fowleri ATCC 30808 trophozoites; assay: Oxidative stress / ROS detection (CellROX Deep Red); type: cell-based, Naegleria fowleri; details: 24 h incubation with IC90
Description: To evaluate the mechanisms of action of the compounds at the cellular level, a series of commercial kits were used according to the manufacturer’s instructions. To carry out the assays, the N. fowleri ATCC 30808 culture was previously incubated with the IC90 of the compounds evaluated for 24 h. Nontreated N. fowleri trophozoites were used as a negative control. […] Five images were processed each time at 40x and 100x objective lenses. In this assay, the oxidative stress produced in the pathogen by the generation of oxygen free radicals is evaluated. The CellROX Deep Red kit (Invitrogen, Thermo Fisher Scientific, Madrid, Spain) was used in amoebae incubated for 24 h with the IC90 of the compounds to be tested. The reagent was used at a final concentration of 5 μM and incubated for 30 min. After this time, the action of the reagent was observed using the Discover Echo Inc. Revolution Microscope (Discover Echo, San Diego, CA). As a result of the overproduction of reactive oxygen species (ROS), this dye has the ability to penetrate the cells and emit red fluorescence at a wavelength of ∼644/665 nm.

[11] = test system: N. fowleri ATCC 30808 trophozoites; assay: Actin filament depolymerization (phalloidin-TRITC); type: cell-based, Naegleria fowleri; details: 24 h incubation with IC90, Z-stack imaging
Description: To evaluate the mechanisms of action of the compounds at the cellular level, a series of commercial kits were used according to the manufacturer’s instructions. To carry out the assays, the N. fowleri ATCC 30808 culture was previously incubated with the IC90 of the compounds evaluated for 24 h. Nontreated N. fowleri trophozoites were used as a negative control. […] Five images were processed each time at 40x and 100x objective lenses. The disassembly of cytoskeleton in treated amoebae can be analyzed by the red fluorescence emitted by phalloidin-TRITC when it binds to actin filaments. On the other hand, DAPI reagent was used which, in turn, binds to DNA and emits blue fluorescence, as already described in Acanthamoeba genus.[52] In this assay, amoebae were incubated with the IC90 of compounds. A 24-h incubation period was followed by the fixation of the cells with formaldehyde on a coverslip and the addition of 0.1% Triton before the addition of phalloidin-tetramethylrhodamine B isothiocyanate (phalloidin-TRITC; Sigma-Aldrich, Madrid, Spain) for another 30-min period. Finally, after incubation, the sample was washed with PBS. Cells were examined by Z-stack with a 100x objective of the EVOS FL Cell Imaging System AMF4300 (Life Technologies, Madrid, Spain).

[12] = J774A.1 macrophage cell line (ATCC TIB-67), alamarBlue, read-out: Murine macrophages J774.A1 CC50
[13] = Murine macrophages J774.A1 CC50

Row | SMILES | S.I. ATCC 30808 (selectivity index CC50/IC50) [1] | IC50 [1] [µM] | IC90 [1] [µM] | IC50 [2] [µM] | CC50 [3, 12] [µM] | CC50 [3, 13] [µM] | CC50 [4] [µM] | IC50 [5] [µM] | Chromatin condensation (Hoechst 33342 blue fluorescence) [6] | Mitochondrial membrane potential (JC-1 fluorescence) [7] | Decrease in ATP levels compared to the negative control [8] [%] | Plasma membrane permeability (SYTOX Green fluorescence) [9] | Intracellular ROS generation (CellROX Deep Red fluorescence) [10] | Actin filaments (phalloidin-TRITC fluorescence) [11] | Propidium iodide red fluorescence [6]
1 | C[C@@H]1[C@H](O)[C@@H](C)/C=C/C=C/C=C/C=C/C=C/C=C/C=C/[C@H](O[C@@H]2O[C@H](C)[C@@H](O)[C@H](N)[C@@H]2O)C[C@@H]2O[C@](O)(C[C@@H](O)C[C@@H](O)[C@H](O)CC[C@@H](O)C[C@@H](O)CC(=O)O[C@H]1C)C[C@H](O)[C@H]2C(=O)O [Amphotericin B, reference compound] | ≥1652.89 | 0.12 ± 0.03 | 0.35 ± 0.02 | 0.16 ± 0.02 | ≥ 200 | – | – | – | – | – | – | – | – | – | –
2 | CCCCCCCCCCCCCCCCOP(=O)([O-])OCC[N+](C)(C)C [Miltefosine, miltefosine, reference compound] | 3.30 | 38.7 ± 4.23 | 89.5 ± 17.4 | 81.6 ± 7.23 | 128 ± 8.85 | – | – | – | – | – | – | – | – | – | –
3 | COC(=O)/C=C/OC(C#N)c1ccccc1 (centres unmarked) [QOET-51] | 14.23 | 49.9 ± 3.04 | 173 ± 17.2 | 68.5 ± 2.16 | – | 709 ± 67.1 | – | – | – | – | – | – | – | – | –
4 | COC(=O)/C=C/OC(C#N)c1ccc(C)cc1 (centres unmarked) [QOET-59] | >20 | 42.3 ± 6.44 | 77.2 ± 11.8 | 44.5 ± 0.48 | – | > 800 | > 865 | 93.6 ± 17.5 | condensation was observed | disruption in the mitochondrial membrane potential | 98.49 | show green fluorescence | increase of the intracellular ROS generation | bright red fluorescence region related to actin depolymerization | –
5 | COC(=O)/C=C\OC(C#N)c1ccc(C(F)(F)F)cc1 (centres unmarked) [QOET-64] | >9 | 38.8 ± 2.13 | 83.4 ± 9.47 | 48.9 ± 0.81 | – | > 351 | – | – | – | – | – | – | – | – | –
6 | COC(=O)/C=C/OC(C#N)c1cc(OC)c(OC)c(OC)c1 (centres unmarked) [QOET-67] | >6 | 48.3 ± 10.5 | 154 ± 15.3 | 121 ± 20.7 | – | > 325 | – | – | – | – | – | – | – | – | –
7 | COC(=O)/C=C/OC(C#N)c1ccc(F)cc1 (centres unmarked) [QOET-79] | >10 | 43.3 ± 5.69 | 119 ± 26 | 54.3 ± 7.4 | – | > 425 | – | – | – | – | – | – | – | – | –
8 | COC(=O)/C=C/OC(C#N)c1ccccc1C (centres unmarked) [QOET-77] | >10 | 39.2 ± 6.3 | 117 ± 26.1 | 42.7 ± 8.5 | – | > 394 | – | 102 ± 7.01 | condensation was observed | disruption in the mitochondrial membrane potential | 86.28 | show green fluorescence | increase of the intracellular ROS generation | only low red fluorescence was detected | late apoptosis phase
9 | COC(=O)/C=C\OC(C#N)c1ccc(C)c(C)c1 (centres unmarked) [QOET-72] | >7 | 47.7 ± 4.1 | 185 ± 7.05 | 50.1 ± 4.9 | – | > 408 | – | 130 ± 22.8 | condensation was observed | disruption in the mitochondrial membrane potential | 90.25 | show green fluorescence | increase of the intracellular ROS generation | bright red fluorescence region related to actin depolymerization | –
